{
  "source": "paper PMC9239059",
  "about": "“Structure-Guided Synthesis of FK506 and FK520 Analogs with Increased Selectivity Exhibit In Vivo Therapeutic Efficacy against Cryptococcus” (mBio, 2022)",
  "assay_in_all_cases": "microbe, parasite or virus in culture",
  "set-up_in_all_cases": "species or system Aspergillus fumigatus and other molds; modified CLSI M38-A2 broth microdilution in RPMI 1640, mold growth inhibition (MIC/MEC)",
  "key": {"Rhizomucor pusilus": {"test_system": "Rhizomucor pusilus", "details": "Rhizomucor; MIC/MEC", "procedure": "(§1) In vitro antifungal activities of FK506, FK520, and analogs were assessed in RPMI 1640 (Sigma-Aldrich) for all strains tested. MICs/minimum effective concentrations (MECs) for each drug were measured using modified Clinical and Laboratory Standards Institute (CLSI) M38-A2 and M27-A3 standard in vitro antifungal susceptibility protocols. Broth microdilution assays for MIC/MEC assessment were performed as described previously ([33]). All antifungal assays with C. neoformans were performed at 37°C. Antifungal susceptibility testing for C. albicans was performed in the presence of a uniform 1 μg/mL concentration of fluconazole to sensitize the organism to calcineurin inhibition. MICs/minimum effective concentrations (MECs) were determined for each of the novel analogs against the three major human fungal pathogens, A. fumigatus, C. neoformans, and C. albicans. […] Thus, analogs of FK506 and FK520 can tolerate up to 100-fold reduction in antifungal activity and still be considered for in vivo testing. For C. neoformans, MICs were the most uniform and ranged from 0.2 to 2 μg/mL, which is between 4- and 40-fold reduced for antifungal activity. C. albicans MICs ranged from 0.2 to 6.25 μg/mL, which is between 10- and 312.5-fold reduced for activity. Despite being one of the most difficult to treat fungal infections, all six analogs were active against A. fumigatus with MECs ranging from 1 to 2 μg/mL or a 62.5- to 125-fold reduction in activity. Two FK520 analogs, JH-FK-05 and JH-FK-07, maintained high levels of broad-spectrum antifungal activity across the three species, and JH-FK-07 had the lowest MICs for both C. neoformans and C. albicans. To assess the antifungal activity against other human fungal pathogens, we selected JH-FK-05 to test against a panel of pathogenic molds and drug-resistant A. fumigatus strains (Table S3). JH-FK-05 registered MECs as low as 1 μg/mL for some of these highly recalcitrant species, such as Mucor circinelloides, Rhizopus oryzae, and pan azole-resistant A. fumigatus (strain F14946)."}, "[1]": {"test_system": "T1, Aspergillus fumigatus F16314", "T1 construct": "F16314", "details": "F16314, MIC/MEC, azole-resistant strain", "procedure": "as §1"}, "Aspergillus flavus": {"test_system": "Aspergillus flavus", "details": "Aspergillus flavus; MIC/MEC", "procedure": "as §1"}, "Aspergillus terreus": {"test_system": "Aspergillus terreus", "details": "Aspergillus terreus; MIC/MEC", "procedure": "as §1"}, "[2]": {"test_system": "T2, Aspergillus fumigatus (Wild-type) (akuBKu80)", "T2 construct": "akuBKu80", "details": "MIC/MEC", "procedure": "as §1"}, "[3]": {"test_system": "T3, Aspergillus fumigatus F12776", "T3 construct": "F12776", "details": "F12776, MIC/MEC, azole-resistant strain", "procedure": "as §1"}, "[4]": {"test_system": "T4, Aspergillus fumigatus F14946", "T4 construct": "F14946", "details": "F14946, MIC/MEC, azole-resistant strain", "procedure": "as §1"}, "Scedosporium apiospermum": {"test_system": "Scedosporium apiospermum", "details": "Scedosporium apiospermum; MIC/MEC", "procedure": "as §1"}, "Mucor circinelloides": {"test_system": "Mucor circinelloides", "details": "Mucor circinelloides; MIC/MEC", "procedure": "as §1"}},
  "data": [
    {"smiles": "CC[C@@H]1/C=C(\\C)C[C@H](C)C[C@H](OC)[C@H]2O[C@@](O)(C(=O)C(=O)N3CCCC[C@H]3C(=O)O[C@H](/C(C)=C/[C@@H]3CC[C@@H](O)[C@H](OC)C3)[C@H](C)[C@@H](O)C/C1=N/NC(C)=O)[C@H](C)C[C@@H]2OC", "note": "[JH-FK-05]", "values": [
      {"measurement": "MIC", "setting": "Rhizomucor pusilus", "result": "> 8", "unit": "µg/mL"},
      {"measurement": "MIC", "setting": "[1]", "result": 1, "unit": "µg/mL"},
      {"measurement": "MIC", "setting": "Aspergillus flavus", "result": 1, "unit": "µg/mL"},
      {"measurement": "MIC", "setting": "Aspergillus terreus", "result": 1, "unit": "µg/mL"},
      {"measurement": "MIC", "setting": "[2]", "result": 1, "unit": "µg/mL"},
      {"measurement": "MIC", "setting": "[3]", "result": 2, "unit": "µg/mL"},
      {"measurement": "MIC", "setting": "[4]", "result": 1, "unit": "µg/mL"},
      {"measurement": "MIC", "setting": "Scedosporium apiospermum", "result": "> 8", "unit": "µg/mL"},
      {"measurement": "MIC", "setting": "Mucor circinelloides", "result": 1, "unit": "µg/mL"}
    ]}
  ]
}
